Molecules are shown by their SMILES.

The subject of assay [1] is MV4-11 human acute myeloid leukemia cell with FLT3-ITD mutation. The assay can be described thus: MV4-11 cell proliferation assay (CellTiter 96). The class given is cell-based. Conditions: Homo sapiens, MV4-11, 72 h, MV4-11 cells, 72 hours treatment, CellTiter96; read-out: anti-proliferation activity MV4-11 (FLT3-ITD), IC50 ranking. In outline: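 Cells seeded at 6500/well in IMDM with 10% heat-inactivated FBS, left overnight at 37 °C, 5% CO2, then exposed to increasing compound concentrations for 72 h. Viability read as absorbance at 490 nm after 2–4 h with CellTiter96 AQueous One reagent.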

Assay [2] has as its system Molm-14 human acute myeloid leukemia cell with FLT3-ITD mutation. The assay can be described thus: Molm-14 cell proliferation assay (CellTiter 96). The class given is cell-based. Conditions: Homo sapiens; Molm-14 cells, 72 hours treatment, CellTiter96; read-out: anti-proliferation activity Molm-14 (FLT3-ITD), IC50 ranking. The method, boiled down: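 Molm-14 (FLT3-ITD AML) cells in RPMI 1640 with 10% heat-inactivated FBS were seeded at 25000 cells/well, incubated overnight at 37° C, 5% CO2, then treated with increasing compound concentrations for 72 hours. Viability was read as absorbance at 490 nm after 2˜4 hours with CellTiter96 AQueous One reagent.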

Assay [3] relates to HCC827 NSCLC cell with EGFR exon 19 deletion mutation. The experiment in a line: HCC827 cell proliferation assay (counter screen). As to conditions: Homo sapiens, HCC827 cells, 72 hours treatment, CellTiter96, read-out: anti-proliferation activity HCC827 EGFR Exon19 del, IC50 ranking. In kind it is cell-based, human. The method, boiled down: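 HCC827 cells (EGFR exon 19 deletion) were seeded at 8000 cells/well in RPMI1640 with 10% FBS, then exposed to increasing compound concentrations for 72 h at 37 °C. Viability was read by CellTiter96 AQueous One (MTS), absorbance 490 nm after 2–4 h.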
(The purpose of a counterscreen is to sort out artefacts and off-target activity.)

Assay [4] has as its system phosphorylation of FLT3 and its down-stream effector STAT5. The experiment in a line: Western blotting of p-FLT3 and p-STAT5 in MV4-11 cells. As to conditions: Homo sapiens; at 30 nM treatment, 3 hours, FLT3-ITD positive MV4-11 leukemia cells; read-out: inhibition activity against phosphorylation of FLT3 and its down-stream effector STAT5. In kind it is cell-based. The protocol:
The potent compounds of formula (I) in EXAMPLE 2 were evaluated, by western blotting assay, for their cellular potencies against phosphorylation of FLT3 and its down-stream effector STAT5 in MV4-11 leukemia cell line with constitutive activation of FLT3 signaling. For western blotting experiments, MV4-11 cells were cultured in IMDM medium containing 0.1% FBS overnight. On the assay day, three million cells were treated with or without compounds for 3 hours in 15 mL tubes. Then, the whole cell lysates were harvested, following extraction by adding 2×SDS Sample Buffer and boiling on hot plate at 105° C. for 15 minutes. The resulting cell lysates were separated by SDS-PAGE electrophoresis and transferred to PVDF membrane. Protein expression was detected using immunoblot with corresponding primary antibody and secondary antibody following the standard procedures. Antibody against p-FLT3 (Tyr-591), anti-rabbit IgG HRP-linked secondary antibody, and anti-mouse IgG HRP-linked secondary antibody were purchased from Cell Signaling Technology. Antibody against p-STAT5 (Tyr-694) was purchased from BD biosciences. Antibody against actin was purchased from R&D system. […] Band intensities of western blot were also quantified by ChemiDoc™ MP Imaging System. Relative intensities of bandscorresponding to drug treatments at a single concentration (30 nM) were compared to the DMSO control group. The percentage (%) inhibition at each drug concentration was calculated using the formula: Percentage(%)inhibition=(1−Relative intensity)×100.
(In western blotting, separated proteins are transferred to a membrane and probed.)

Turning to `CC(C)n1ncc2ccc(-c3n[nH]c4c3Cc3sc(-c5ccc(CN6CCOCC6)cc5)cc3-4)cc21` [Compound 42, 4-(4-(3-(1-isopropyl-1H-indazol-6-yl)-1,4-dihydro-thieno[2′,3′:4,5]cyclopenta [1,2-c]pyrazol-6-yl)benzyl)morpholine], the IC50 is 30 to 100 nM in assay [1], 100 to 300 nM in assay [2] and more than 10000 nM in assay [3]. In addition, the inhibition (commonly the change of the read-out against control, counted positive when it falls) at 0.03 µM in assay [4] is more than 50%.
With `Cn1ncc2ccc(-c3n[nH]c4c3Cc3sc(-c5ccc(CN6CCCCC6=O)cc5)cc3-4)cc21` [Compound 61, 1-(4-(3-(l-methyl-1H-indazol-6-yl)-1,4-dihydro-thieno[2′,3′:4,5]cyclopenta [1,2-c]pyrazol-6-yl)benzyl)piperidin-2-one], the IC50 in assay [1] was less than 30 nM; in assay [2] it was less than 30 nM; in assay [3], more than 10000 nM. Also, in assay [4], the inhibition at 0.03 µM is more than 50%.
As for `CC(c1ccc(-c2cc3c(s2)Cc2c(-c4ccc5cnn(C)c5c4)n[nH]c2-3)cc1)N1CCOCC1` (stereo not shown) [Compound 20, 4-(1-(4-(3-(1-methyl-1H-indazol-6-yl)-1,4-dihydro-thieno[2′,3′:4,5]cyclopenta [1,2-c]pyrazol-6-yl)phenyl)ethyl)morpholine], the IC50 in assay [1] was less than 30 nM; in assay [2] it was 30 to 100 nM; in assay [3], more than 10000 nM. The inhibition at 0.03 µM in assay [4] is more than 50%.
For `Cn1ncc2ccc(-c3n[nH]c4c3Cc3sc(-c5ccc(NC6CCOCC6)cc5)cc3-4)cc21` [Compound 72, N-(4-(3-(1-methyl-1H-indazol-6-yl)-1,4-dihydro-thieno[2′,3′:4,5]cyclopenta [1,2-c]pyrazol-6-yl)phenyl)tetrahydro-2H-pyran-4-amine], the IC50 in assay [1] was 30 to 100 nM; in assay [2], 100 to 300 nM; in assay [3], more than 10000 nM. Also, the inhibition at 0.03 µM in assay [4] was more than 50%.
In the case of `Cn1ncc2ccc(-c3n[nH]c4c3Cc3sc(C5CCN(C(=O)CN6CCOCC6)CC5)cc3-4)cc21` [Compound 98, 1-(4-(3-(1-methyl-1H-indazol-6-yl)-1,4-dihydro-thieno[2′,3′:4,5]cyclopenta [1,2-c]pyrazol-6-yl)piperidin-1-yl)-2-morpholinoethan-1-one], the IC50 is less than 30 nM in assay [1], less than 30 nM in assay [2] and more than 10000 nM in assay [3]. In assay [4], the inhibition at 0.03 µM was more than 50%.
As to `Cn1ncc2ccc(-c3n[nH]c4c3Cc3sc(-c5ccc(CN6CCOCC6)cc5F)cc3-4)cc21` [Compound 32, 4-(3-fluoro-4-(3-(1-methyl-1H-indazol-6-yl)-1,4-dihydrothieno [2′,3′:4,5]cyclopenta [1,2-c]pyrazol-6-yl)benzyl)morpholine], the IC50 was 30 to 100 nM in assay [1], 100 to 300 nM in assay [2] and more than 10000 nM in assay [3]. Further, the inhibition at 0.03 µM in assay [4] was more than 50%.
For the molecule `C[C@@H]1CN(Cc2cccc(-c3cc4c(s3)Cc3c(-c5ccc6cnn(C)c6c5)n[nH]c3-4)c2)C[C@H](C)O1` [Compound 12, (2S,6R)-2,6-dimethyl-4-(3-(3-(1-methyl-1H-indazol-6-yl)-1,4-dihydrothieno [2′,3′:4,5]cyclopenta[1,2-c]pyrazol-6-yl)benzyl) morpholine], the values for the IC50 in assay [1], in assay [2] and in assay [3] were 30 to 100 nM, 100 to 300 nM and more than 10000 nM, respectively. Further, the inhibition at 0.03 µM in assay [4] is more than 50%.
Take `Cn1ncc2ccc(-c3n[nH]c4c3Cc3sc(-c5ccc(CN6CCCC6)cc5)cc3-4)cc21` [Compound 99, 3-(1-methyl-1H-indazol-6-yl)-6-(4-(pyrrolidin-1-ylmethyl)phenyl)-1,4-dihydrothieno[2′,3′:4,5] cyclopenta[1,2-c]pyrazole]: the IC50 in assay [1] is less than 30 nM; in assay [2], less than 30 nM; in assay [3] it was more than 10000 nM. For the same molecule, the inhibition at 0.03 µM in assay [4] is more than 50%.
`Cn1ncc2ccc(-c3n[nH]c4c3Cc3sc(C5CCNCC5)cc3-4)cc21` [Compound 96, 3-(1-methyl-1H-indazol-6-yl)-6-(piperidin-4-yl)-1,4-dihydrothieno [2′,3′:4,5]cyclopenta [1,2-c]pyrazole]: the IC50 was less than 30 nM in assay [1], less than 30 nM in assay [2] and 1000 to 10000 nM in assay [3]. In assay [4], the inhibition at 0.03 µM was more than 50%.
Take `c1cc(CN2CCOCC2)ncc1-c1cc2c(s1)Cc1c(-c3ccc4cn[nH]c4c3)n[nH]c1-2` [Compound 18, 4-((5-(3-(1H-indazol-6-yl)-1,4-dihydrothieno[2′,3′:4,5]cyclopenta[1,2-c]pyrazol-6-yl)pyridin-2-yl)methyl) morpholine]: the IC50 in assay [1] was less than 30 nM; in assay [2], less than 30 nM; in assay [3] it was more than 10000 nM. In assay [4], the inhibition at 0.03 µM is more than 50%.
Consider `Cn1ncc2ccc(-c3n[nH]c4c3Cc3sc(C5CCN(C(=O)OC(C)(C)C)CC5)cc3-4)cc21` [Compound 58, tert-butyl-4-(3-(1-methyl-1H-indazol-6-yl)-1,4-dihydrothieno[2′,3′:4,5]cyclopenta[1,2-c]pyrazol-6-yl)piperidine-1-carboxylate], for which the results for the IC50 in assay [1], in assay [2] and in assay [3] were 30 to 100 nM, 100 to 300 nM and more than 10000 nM, respectively. Also, in assay [4], the inhibition at 0.03 µM is more than 50%.
In the case of `Cn1ncc2ccc(-c3n[nH]c4c3Cc3sc(-c5ccc(C(=O)N6CCOCC6)c(F)c5)cc3-4)cc21` [Compound 44, (2-fluoro-4-(3-(1-methyl-1H-indazol-6-yl)-1,4-dihydrothieno[2′,3′:4,5]cyclopenta[1,2-c]pyrazol-6-yl)phenyl)(morpholino) methanone], the IC50 was less than 30 nM in assay [1], less than 30 nM in assay [2] and more than 10000 nM in assay [3]. The inhibition at 0.03 µM in assay [4] was more than 50%.
Turning to `Cn1ncc2ccc(-c3n[nH]c4c3Cc3sc(-c5ccc(S(=O)(=O)N6CCOCC6)cc5)cc3-4)cc21` [Compound 47, 4-((4-(3-(1-methyl-1H-indazol-6-yl)-1,4-dihydro-thieno[2′,3′:4,5]cyclopenta [1,2-c]pyrazol-6-yl)phenyl)sulfonyl) morpholine], the IC50 in assay [1] was less than 30 nM; in assay [2], less than 30 nM; in assay [3] it was more than 10000 nM. Besides, in assay [4], the inhibition at 0.03 µM is more than 50%.
Regarding `Cn1ncc2ccc(-c3n[nH]c4c3Cc3sc(-c5cccc(C(=O)N6CCOCC6)c5)cc3-4)cc21` [Compound 37, (3-(3-(1-methyl-1H-indazol-6-yl)-1,4-dihydro-thieno[2′,3′:4,5]cyclopenta [1,2-c]pyrazol-6-yl)phenyl)(morpholino) methanone], the IC50 in assay [1] is less than 30 nM; in assay [2], 30 to 100 nM; in assay [3], more than 10000 nM. For the same molecule, the inhibition at 0.03 µM in assay [4] is more than 50%.
As for `CCC(c1ccc(-c2cc3c(s2)Cc2c(-c4ccc5cnn(C)c5c4)n[nH]c2-3)cc1)N1CCOCC1` (stereo not shown) [Compound 28, 4-(1-(4-(3-(1-methyl-1H-indazol-6-yl)-1,4-dihydro-thieno[2′,3′:4,5]cyclopenta [1,2-c]pyrazol-6-yl)phenyl)propyl)morpholine], the IC50 in assay [1] was 30 to 100 nM; in assay [2], 30 to 100 nM; in assay [3], more than 10000 nM. In addition, the inhibition at 0.03 µM in assay [4] is more than 50%.
`C[C@@H]1CN(Cc2ccc(-c3cc4c(s3)Cc3c(-c5ccc6cnn(C)c6c5)n[nH]c3-4)cc2)C[C@H](C)O1` [Compound 54, (2S,6R)-2,6-dimethyl-4-(4-(3-(1-methyl-1H-indazol-6-yl)-1,4-dihydro-thieno[2′,3′:4,5]cyclopenta [1,2-c]pyrazol-6-yl)benzyl)morpholine]: the IC50 is less than 30 nM in assay [1], 30 to 100 nM in assay [2] and more than 10000 nM in assay [3]. Further, in assay [4], the inhibition at 0.03 µM is more than 50%.
